From patent publication US6087355A, “Cephalosporin antibiotics” (Microcide Pharmaceuticals, Inc., priority 1996, dated 2000)
Structures can show the parent of a compound that is named as a salt.

Key:
Assay in all cases: In vitro MIC, agar dilution
Format in all cases: cell-based
[1] = test system: S. aureus Col(Meth^R)(lac^-); conditions: Staphylococcus aureus, read-out: minimum inhibitory concentration (MIC)
Experimental: (§1) The compounds of the invention were evaluated against several β-lactamresistant (for example methicillin-resistant, vancomycin resistant, and/or ampicillin-resistant) bacteria strains by determining the minimum inhibitory concentration (MIC, μg/ml) of each compound with respect to each strain. The MIC, the lowest concentration of antibiotic which inhibits growth of the test organism, was determined by the agar dilution method.
(§2) To determine the MIC for bacterial isolates, the test compound was incorporated in a series of two-fold dilutions into liquified Mueller-Hinton agar. Upon solidification, a number of different bacterial strains were spot inoculated with a replicating device onto the agar surface.
(§3) Aliquots of antimicrobial agents were prepared in phosphate buffered saline (PBS) at pH 7.2. Tween 20 or DMSO was used as a solubilizing vehicle as needed. Standard methods of vortexing, sonicating and gentle heat were used to facilitate solubilizing the test agent. […] A 1.28 mg/mL stock solution was used with a subsequent highest working concentration of 128 μg/mL. Serial two-fold dilutions were done through ≤0.25 μg/mL. Each drug level was tested in duplicate. Two-fold drug dilutions were done in sterile 50 mL tubes with a final drug volume of 5 mL. Upon the addition of 45 mL of molten agar, a 10-fold dilution resulted. Two, 25 mL. plates were then poured into 15×150 mm square Petri plates with grids and allowed to harden.
(§4) A control plate with a reference drug, either cefotaxime, vancomycin or imipenem, was used as the positive growth control. Stock concentrations of reference antibiotics were prepared and frozen at -80° C. […] All test plates were used within 24 hours of preparation.
(§5) Satisfactory results were obtained where the inoculum contained about 10^4 colony forming units (cfu)±0.5 logs. Starting with pure cultures of the test isolates on agar plates, a few isolated colonies were transferred to a tube of nutrient broth and allowed to grow 4-6 hours at 35-36° C. to reach log-phase growth. Dropwise addition of the broth culture to PBS was done to match a 0.5 McFarland turbidity standard equal to 10^8 cfu/mL. This was further diluted ten-fold in PBS to reach a working inoculum concentration of 10^7 cfu/mL. When 1 μL of the working inoculum was applied to the agar surface a concentration of about 10^4 cfu per spot was obtained.
(§6) Disposable sterile 1 μL loops were used to inoculate test plates, with each isolate in a designated grid on the agar plate. An alternate method of inoculation involved the use of a replica plater, a device with 48 steel pins allowing the simultaneous inoculation of multiple isolates. After the spots had dried, the plates were incubated at 35-36° C. for 16-20 hours. Endpoints were assessed as the minimum inhibitory concentration (MIC) of antimicrobial agent.
The S. aureus Col strain is a high-level PBP2a producer, whereas S. aureus Col 8A, its isogenic partner, lacks PBP2a.

E. faecalis VanB(Van^R) = conditions: Enterococcus faecalis, read-out: minimum inhibitory concentration (MIC)
Experimental: as §1, §2, §3, §4, §5, §6

[2] = test system: S. aureus 76(Meth^R)(lac^+); conditions: Staphylococcus aureus, read-out: minimum inhibitory concentration (MIC)
Experimental: as §1, §2, §3, §4, §5, §6

[3] = test system: S. aureus ATCC 33593(Meth^R); conditions: Staphylococcus aureus, ATCC33593, read-out: minimum inhibitory concentration (MIC)
Experimental: as §1, §2, §3, §4, §5, §6

E. faecium ATCC 35667 = conditions: Enterococcus faecium, ATCC35667, read-out: minimum inhibitory concentration (MIC)
Experimental: as §1, §2, §3, §4, §5, §6

E. faecalis ATCC 29212 = conditions: Enterococcus faecalis, ATCC29212, read-out: minimum inhibitory concentration (MIC)
Experimental: as §1, §2, §3, §4, §5, §6

S. aureus ATCC 29213 = conditions: Staphylococcus aureus, ATCC29213, read-out: minimum inhibitory concentration (MIC)
Experimental: as §1, §2, §3, §4, §5, §6

[4] = test system: S. aureus Spain #356(Meth^R); conditions: Staphylococcus aureus, read-out: minimum inhibitory concentration (MIC)
Experimental: as §1, §2, §3, §4, §5, §6

[5] = test system: S. aureus ATCC 13709(Meth^S); conditions: Staphylococcus aureus, ATCC13709, S. aureus ATCC 13709(Meth^S); read-out: minimum inhibitory concentration (MIC)
Experimental: as §1, §2, §3, §4, §5, §6

[6] = test system: S. haemolyticus 05(Meth^R); conditions: Staphylococcus haemolyticus, read-out: minimum inhibitory concentration (MIC)
Experimental: as §1, §2, §3, §4, §5, §6

[7] = test system: S. aureus PC1(Meth^S)(lac^+); conditions: Staphylococcus aureus, read-out: minimum inhibitory concentration (MIC)
Experimental: as §1, §2, §3, §4, §5, §6

E. faecium VanA(Van^R) = conditions: Enterococcus faecium, read-out: minimum inhibitory concentration (MIC)
Experimental: as §1, §2, §3, §4, §5, §6

P. aeruginosa ATCC 27853 = conditions: Pseudomonas aeruginosa, ATCC27853, read-out: minimum inhibitory concentration (MIC)
Experimental: as §1, §2, §3, §4, §5, §6

E. faecium A491(Amp^R) = conditions: Enterococcus faecium, read-out: minimum inhibitory concentration (MIC)
Experimental: as §1, §2, §3, §4, §5, §6

E. coli ATCC 25992 = conditions: Escherichia coli, ATCC25992, read-out: minimum inhibitory concentration (MIC)
Experimental: as §1, §2, §3, §4, §5, §6

## CNCCSCc1cnccc1SC1=C(C(=O)O)N2C(=O)[C@@H](NC(=O)/C(=N\O)c3nc(N)sc3Cl)[C@H]2SC1 [Cmpd 41, (7R)-7-[(Z)-2-(2-amino-5-chlorothiazol-4-yl)-2-(hydroxyimino)acetamido]-3-(3-(2-N-methylaminoethylthiomethyl)pyrid-4-ylthio)-3-cephem-4-carboxylate, trifluoroacetic acid salt]
[1]
  MIC: 1 µg/mL
E. faecalis VanB(Van^R)
  MIC: ≤ 0.06 µg/mL
[2]
  MIC: 1 µg/mL
[3]
  MIC: 1 µg/mL
E. faecium ATCC 35667
  MIC: 0.25 µg/mL
E. faecalis ATCC 29212
  MIC: ≤ 0.06 µg/mL
S. aureus ATCC 29213
  MIC: 0.13 µg/mL
[4]
  MIC: 1 µg/mL
[5]
  MIC: 0.13 µg/mL
[6]
  MIC: 1 µg/mL
[7]
  MIC: 0.25 µg/mL
E. faecium VanA(Van^R)
  MIC: 1 µg/mL
P. aeruginosa ATCC 27853
  MIC: 32 µg/mL
E. faecium A491(Amp^R)
  MIC: 8 µg/mL
E. coli ATCC 25992
  MIC: 4 µg/mL

## NCC#CCc1cnccc1SC1=C(C(=O)O)N2C(=O)[C@@H](NC(=O)/C(=N\O)c3nc(N)sc3Cl)[C@H]2SC1 [Cmpd 48, (7R)-7-[(Z)-2-(2-amino-5-chlorothiazol-4-yl)-2-(hydroxyimino)acetamido]-3-(3-(4-amino-2-butyn-1-yl)pyrid-4-ylthio)-3-cephem-4-carboxylate, trifluoroacetic acid salt]
[1]
  MIC: 4 µg/mL
E. faecalis VanB(Van^R)
  MIC: 0.5 µg/mL
[2]
  MIC: 8 µg/mL
[3]
  MIC: 4 µg/mL
E. faecium ATCC 35667
  MIC: 1 µg/mL
E. faecalis ATCC 29212
  MIC: 0.25 µg/mL
S. aureus ATCC 29213
  MIC: 0.5 µg/mL
[4]
  MIC: 8 µg/mL
[5]
  MIC: 0.25 µg/mL
[6]
  MIC: 16 µg/mL
[7]
  MIC: 0.5 µg/mL
E. faecium VanA(Van^R)
  MIC: 4 µg/mL
P. aeruginosa ATCC 27853
  MIC: > 32 µg/mL
E. faecium A491(Amp^R)
  MIC: 32 µg/mL
E. coli ATCC 25992
  MIC: 4 µg/mL

## CC(N)COCc1cnccc1SC1=C(C(=O)O)N2C(=O)[C@@H](NC(=O)/C(=N\O)c3nc(N)sc3Cl)[C@H]2SC1 (stereo partly drawn) [Cmpd 49, (7R)-7-[(Z)-2-(2-amino-5-chlorothiazol-4-yl)-2-(hydroxyimino)acetamido]-3-(3-(2-aminopropyloxymethyl)pyrid-4-ylthio)-3-cephem-4-carboxylate, trifluoroacetic acid salt]
[1]
  MIC: 2 µg/mL
E. faecalis VanB(Van^R)
  MIC: 0.13 µg/mL
[2]
  MIC: 2 µg/mL
[3]
  MIC: 2 µg/mL
E. faecium ATCC 35667
  MIC: 1 µg/mL
E. faecalis ATCC 29212
  MIC: 0.13 µg/mL
S. aureus ATCC 29213
  MIC: 0.25 µg/mL
[4]
  MIC: 2 µg/mL
[5]
  MIC: 0.25 µg/mL
[6]
  MIC: 4 µg/mL
[7]
  MIC: 0.5 µg/mL
E. faecium VanA(Van^R)
  MIC: 2 µg/mL
P. aeruginosa ATCC 27853
  MIC: > 32 µg/mL
E. faecium A491(Amp^R)
  MIC: 16 µg/mL
E. coli ATCC 25992
  MIC: 8 µg/mL

## NCCCSc1cnccc1SC1=C(C(=O)O)N2C(=O)[C@@H](NC(=O)/C(=N\O)c3nc(N)sc3Cl)[C@H]2SC1 [Cmpd 51, (7R)-7-[(Z)-2-(2-amino-5-chlorothiazol-4-yl)-2-(hydroxyimino)acetamido]-3-(3-(3-aminopropylthio)pyrid-4-ylthio)-3-cephem-4-carboxylate, trifluoroacetic acid salt]
[1]
  MIC: 2 µg/mL
E. faecalis VanB(Van^R)
  MIC: 0.25 µg/mL
[2]
  MIC: 4 µg/mL
[3]
  MIC: 2 µg/mL
E. faecium ATCC 35667
  MIC: 0.13 µg/mL
E. faecalis ATCC 29212
  MIC: 0.13 µg/mL
S. aureus ATCC 29213
  MIC: 0.25 µg/mL
[4]
  MIC: 2 µg/mL
[5]
  MIC: 0.5 µg/mL
[6]
  MIC: 2 µg/mL
[7]
  MIC: 0.5 µg/mL
E. faecium VanA(Van^R)
  MIC: 1 µg/mL
P. aeruginosa ATCC 27853
  MIC: > 32 µg/mL
E. faecium A491(Amp^R)
  MIC: 8 µg/mL
E. coli ATCC 25992
  MIC: 8 µg/mL

## CC(=N)NCCSCc1cnccc1SC1=C(C(=O)O)N2C(=O)[C@@H](NC(=O)/C(=N\O)c3nc(N)sc3Cl)[C@H]2SC1 [Cmpd 54, (7R)-7-[(Z)-2-(2-amino-5-chlorothiazol-4-yl)-2-(hydroxyimino)acetamido]-3-(3-(N-acetamidinoyl)aminoethylthiomethylpyrid-4-ylthio)-3-cephem-4-carboxylate, trifluoroacetic acid salt]
[1]
  MIC: 2 µg/mL
E. faecalis VanB(Van^R)
  MIC: 0.25 µg/mL
[2]
  MIC: 2 µg/mL
[3]
  MIC: 1 µg/mL
E. faecium ATCC 35667
  MIC: 0.5 µg/mL
E. faecalis ATCC 29212
  MIC: 0.13 µg/mL
S. aureus ATCC 29213
  MIC: 0.25 µg/mL
[4]
  MIC: 2 µg/mL
[5]
  MIC: 0.25 µg/mL
[6]
  MIC: 2 µg/mL
[7]
  MIC: 0.25 µg/mL
E. faecium VanA(Van^R)
  MIC: 1 µg/mL
P. aeruginosa ATCC 27853
  MIC: > 32 µg/mL
E. faecium A491(Amp^R)
  MIC: 8 µg/mL
E. coli ATCC 25992
  MIC: 8 µg/mL
